Read-outs that look alike come from different tables or passages of the source. Values belong to the compound of their own block, whether it stands above or below them.
Experiments:
[1] = system: Wolbachia within Brugia malayi Mf; experiment: B. malayi microfilarial (Mf) in vitro anti-Wolbachia assay (wsp:gst qPCR); assay type: cell-based
Protocol: The Mf were obtained by peritoneal lavage, using a catheter, of gerbils (Meriones unguiculatus) harbouring a patent infection of B. malayi. Mf were purified using a PD-10 desalting column (Fisher), centrifuged (311 RCF for 5 min at room temperature) before the addition of 8000 Mf/well of a 96-well plate (100 µl per well) in complete media consisting of RPMI supplemented with 10% FBS, 1% penicillin streptomycin and 1% amphotericin B. […] Each plate contained doxycycline (5 µM) and DMSO controls. After incubation at 37 °C for 6 days in 5% CO2, visual assessment of Mf motility was performed and scored from 0 to 4 per well (where 0 = no movement and 4 = highly motile). DNA extraction per sample was performed using the QIAmp DNA Mini Kit before quantitative PCR was performed to obtain the ratio of Wolbachia Surface Protein gene copy number (wsp) to Glutathione S-Transferase gene copy number (gst)[36]. The DNA was amplified using the primers as indicated in Supplementary Table 6.
The wsp:gst ratio data allowed for normalisation of the Wolbachia level to the Mf biomass for each well. The change in wsp:gst for each compound compared to the DMSO control was calculated before normalisation to the onboard doxycycline control to allow for inter-assay comparison.

[2] = system: Wolbachia in C6/36 (wAlbB) cells; experiment: Secondary concentration response HTS (IC50) anti-Wolbachia screen in C6/36 (wAlbB) insect cells; assay type: cell-based, Wolbachia pipientis wAlbB (in Aedes albopictus C6/36 cells); settings: Wolbachia, 168 h, 7-day incubation, 10-point concentration range
Protocol: Initially C6/36 (wAlbB) cells (insect cells stably infected with the Wolbachia target) from a single cryopreserved batch were recovered over 7 days prior to plating into 384-well assay ready plates (containing the test compounds), using a semi-automated process allowing for daily batches of ~150 plates, set up 4 days per week for 8 weeks. After a 7-day incubation period with the test compounds the plates were moved into the second fully automated stage (using the Agilent Technologies BioCel system) involving formaldehyde fixation, DNA staining of the insect cell nuclei (Hoechst) for toxicity analysis and antibody staining specific to the intracellular Wolbachia (wBmPAL primary antibody and far-red secondary antibody). In the final stage the fixed and stained plates from stage 2 were processed through automated data acquisition (High Res Biosolutions system, incorporating EnVision™ and acumen® plate readers). This industry standardised assay was then used to screen AstraZeneca’s full library of 1.3 million compounds within 10 weeks. In total this HTS included 30 × 3 week assays covering 3835 × 384-well plates. This primary HTS generated 20,255 hits defined as >80% reduction in Wolbachia with <60% toxicity to the host insect cell (eliminating false positives). This represents an overall hit rate of 1.56%. These compounds are depicted in chemical space in Fig. 2 (black points)[21].
The mosquito (Aedes albopictus) derived cell line C6/36 (ATCC® CRL 1660), stably infected with Wolbachia pipientis wAlbB (C6/36(wAlbB)), was maintained in Leibovitz L15 medium containing 2 mM L-glutamine, 1% nonessential amino acids, 2% tryptose phosphate broth and 20% heat-inactivated foetal bovine serum (FBS) at 26 °C[18]. This screen exclusively used cells from the large-scale cryopreserved batch produced as part of this campaign by culturing the cells at scale before cryopreservation (90% FBS and 10% DMSO). This produced a cell bank of 190 × 1 ml cryovials containing 3 × 10^7 cells per vial.
On day 0, a single cryovial was recovered and the cells washed before being transferred to a T225 cm^2 flask. After a 7-day recovery Wolbachia infection level (quality control (QC)) was checked by SYTO®11 DNA staining of both the host cell nuclei and intracellular Wolbachia. The end-point read out from the Operetta® high content imaging system (Perkin Elmer) was the percentage of cells infected with Wolbachia. This was obtained from cytoplasm texture analysis by the associated Harmony® software. Cells with a >50% of the population infected with Wolbachia were classed as having a good Wolbachia level and therefore used for screening through addition of 2000 cells per well into assay ready 384-well plates containing the test compounds. […] Each plate included on-board controls; vehicle/DMSO (total/maximum Wolbachia signal) or doxycycline 5 µM (null/minimum Wolbachia signal), resulting in single shot screening of 352 compounds per plate for the primary screen. […] QC plates were also created including full columns of the following controls; DMSO (total/max), 5 μM doxycycline (null/min), as well as 50 nM doxycycline (reference/medium Wolbachia signal). Daily batches contained ~150 compound plates in addition to the QC plates. Each compound plate was foil sealed before incubation for 7 days at 26 °C, 95% humidity and atmospheric air.
After 7 days of drug incubation, the plates were loaded into the fully automated BioCel system which performed the following additions; fixation and DNA staining (1.8% formaldehyde + 0.6 µg/ml Hoechst 33342, 20 min), permeabilisation (80 μl of PBS + 0.25% Triton-X 100, 30 min), blocking (PBS + 6% BSA, 40 min), overnight incubation in the Wolbachia-specific anti-wBmPAL primary antibody[34] […]

[3] = Brugia malayi, 144 h, B. malayi Mf, 6 days, read-out: Mf EC50
[4] = category bounds in the picture of Fig. 4, read-out: Mf EC50 (category given in Fig. 4)

SMILES: CC1COCCN1c1cc(OCc2ccccc2)nc(-c2nccn2C)n1 (centres unmarked) [3A, 4-(6-(benzyloxy)-2-(1-methyl-1H-imidazol-2-yl)pyrimidin-4-yl)-3-methylmorpholine]
- EC50 [1, 3]: ~183 nM
- EC50 [1, 4]: < 200 nM
- IC50 [2]: 968 nM

SMILES: CCc1ccc(CN2CCCC2c2nc(C(=O)N(C)C)cs2)s1 (centres unmarked) [4A, 2-(1-((5-ethylthiophen-2-yl)methyl)pyrrolidin-2-yl)-N,N-dimethylthiazole-4-carboxamide]
- Mf in vitro potency (in words) [1]: good
- EC50 [1, 3]: ~219 nM
- EC50 [1, 4]: 200 to 1000 nM
- IC50 [2]: 145 nM

SMILES: Cc1nc(C(=O)NC(C)c2ccc(F)cc2)c(NC(=O)Cc2ccccc2)[nH]1 (centres unmarked) [5A, N-(1-(4-fluorophenyl)ethyl)-2-methyl-5-(2-phenylacetamido)-1H-imidazole-4-carboxamide]
- Mf in vitro potency (in words) [1]: comparatively good
- EC50 [1, 3]: ~271 nM
- EC50 [1, 4]: 200 to 1000 nM
- IC50 [2]: 594 nM

The next compounds have a lower EC50 [1, 3] than those just listed; values first:

- EC50 [1, 3]: 164 nM
- EC50 [1, 4]: < 200 nM
SMILES: COc1ccc(CC(=O)Nc2[nH]nc(C)c2-c2ccccc2)c(Cl)c1 [2A, 2-(2-chloro-4-methoxyphenyl)-N-(3-methyl-4-phenyl-1H-pyrazol-5-yl)acetamide]
- IC50 [2]: 2390 nM

- EC50 [1, 3]: ~161 nM
- EC50 [1, 4]: < 200 nM
SMILES: Cc1nccc(N2CCC(C(=O)N(C)CCN(C)S(=O)(=O)c3ccc(Br)cc3)CC2)n1 [1A, N-(2-((4-bromo-N-methylphenyl)sulfonamido)ethyl)-N-methyl-1-(2-methylpyrimidin-4-yl)piperidine-4-carboxamide]
- IC50 [2]: 184 nM

Source: article PMC6315057, “Industrial scale high-throughput screening delivers multiple fast acting macrofilaricides” (Nature Communications, 2019)
